According to patent publication US20230058623A1, “NOVEL HETEROARYL-TRIAZOLE COMPOUNDS AS PESTICIDES” (Bayer Aktiengesellschaft, priority 2019, published 2023):

How the values were obtained:
Assay type in all cases: in vivo
[1] = tested on: adult engorged female ticks (Rhipicephalus microplus); assay: Rhipicephalus (Boophilus) microplus injection test; conditions: 168 h, application rate 4 μg/tick, egg deposition after 7 days, read-out: activity (efficacy: infertile eggs)
In short: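 Abdominal injection, 1 μL compound/DMSO, n=5 engorged adult females; climate-chamber incubation. Readout d7: fertile egg laying; doubtful eggs held to hatch (~42 d). % efficacy = infertile eggs (100% all infertile).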

[2] = tested on: adult unfed cat fleas (Ctenocephalides felis); assay: Ctenocephalides felis oral test; conditions: 48 h, read-out: activity (mortality)
In short: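 About 20 adult unfed cat fleas fed through parafilm on citrated cattle blood containing compound (from a DMSO concentrate). Blood held at 37° C, fleas at room temperature. Mortality in % scored after 2 days.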

[3] = tested on: larvae of the banded cucumber beetle (Diabrotica balteata); assay: Diabrotica balteata spray test; conditions: 168 h, after 7 days, wheat seeds, read-out: activity (efficacy: seedlings grown); for pest or weed control at 32 µg/disc, 100 g/ha: application rate 100 g/ha (=32 μg/well); for pest or weed control at 160 µg/disc, 500 g/ha: application rate 500 g/ha (=160 μg/well)
In short: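 Efficacy (%) read 7 days after infesting treated seedlings with 10-20 banded cucumber beetle larvae, 100% meaning growth as in uninfected untreated control and 0% no growth. Test solutions in water containing 1000 ppm emulsifier were sprayed onto wheat seeds germinated for 1 day on agar.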

[4] = tested on: green peach aphid (Myzus persicae); assay: Myzus persicae oral test; conditions: 120 h, read-out: activity (mortality)
In short: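 Five-day oral feeding assay measuring percent mortality of a mixed aphid population that draws compound-containing sugared IPL41 medium through sealing parafilm; the test preparation derives from 1 part compound per 100 parts acetone, diluted with water.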

[5] = tested on: green peach aphid (Myzus persicae); assay: Myzus persicae spray test; conditions: foliar, 120 h, after 5 days, Chinese cabbage leaf disks; for mortality at 500 g/ha: application rate 500 g/ha; for mortality at 100 g/ha: application rate 100 g/ha, read-out: activity (mortality)
In short: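 Percent kill was recorded 5 days after spraying. Test solutions, prepared with solvent and diluted in 1000 ppm emulsifier water, were applied to Brassica pekinensis leaf disks carrying mixed-instar green peach aphids.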

[6] = tested on: larvae of the southern green stink bug (Nezara viridula); assay: Nezara viridula spray test; conditions: 96 h, application rate 500 g/ha, after 4 days, barley plants, read-out: activity (mortality)
In short: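 Barley plants sprayed with the active compound in emulsifier-containing water, then infested with stink bug larvae. Mortality scored in % after 4 days, with 100% meaning all insects killed.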

[7] = tested on: fall armyworm larvae (Spodoptera frugiperda); assay: Spodoptera frugiperda spray test; conditions: 168 h, application rate 100 g/ha, after 7 days, maize leaf sections
In short: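 Seven-day percent mortality of larvae feeding on Zea mays leaf sections sprayed with test compound. Dilutions were made in water holding 1000 ppm emulsifier.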

[8] = tested on: adult mosquitoes Anopheles funestus strain FUMOZ-R; assay: Anopheles funestus test (ANPHFU surface treatment & contact assay); conditions: surface concentration 20 mg/m^2, exposure 30 minutes, 24 hours after contact, read-out: efficacy (mortality)
Method: Anopheles funestus Test (ANPHFU Surface Treatment & Contact Assay)
Solvent: Aceton+2000 ppm rapeseed oil methyl ester (RME)
In order to produce a sufficient, active ingredient containing solution it is necessary to solve the test compound in the solvent-mix (acetone at 2 mg/ml/RME 2000 ppm). This solution is pipetted onto a glazed tile and after evaporation of the acetone, adult mosquitoes of the species Anopheles funestus strain FUMOZ-R (Hunt et al., Med. Vet. Entomol. 2005 September; 19(3): 271-275) are placed onto the dried surface. The exposure time is 30 minutes.
Mortality in percent (%) is determined 24 hours after contact of the insects to the treated surface. 100% mortality means that all tested insects are dead, whereas 0% means that no insect died.

[9] = tested on: adult flies Musca domestica strain WHO-N; assay: Musca domestica test (MUSCDO surface treatment & contact assay); conditions: surface concentration 20 mg/m^2, exposure 30 minutes, 24 hours after contact, read-out: efficacy (mortality)
In short: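 Compound dissolved at 2 mg/ml in acetone with 2000 ppm RME, applied to glazed tile and dried; adult flies exposed on the surface for 30 min. Percent mortality scored 24 h after contact.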

[10] = tested on: cattle ticks (Rhipicephalus microplus) strain Parkhurst, SP-resistant; assay: Rhipicephalus (Boophilus) microplus dip test; conditions: 168 h, application rate 100 ppm, egg deposition after 7 days, read-out: activity (efficacy: infertile eggs)
Method: Rhipicephalus (Boophilus) microplus—Dip Test
Test animal: cattle ticks (Rhipicephalus microplus) strain Parkhurst, SP-resistant
Solvent: dimethyl sulfoxide
To produce a suitable preparation of active compound, 10 mg of active compound are dissolved in 0.5 mL solvent, and the concentrate is diluted with water to the desired concentration.
This compound solution is pipetted into tubes. 8-10 engorged, adult, female cattle ticks (Rhipicephalus microplus) are placed in perforated tubes. These tubes are immersed in the aqueous compound solution until the ticks are completely moistened. After the liquid has drained off, the ticks are transferred to a filter paper in a plastic tray and stored in a climate chamber.
After 7 days egg deposition of fertile eggs is monitored. Eggs where fertility is not visible are stored in a climate chamber till hatching after about 42 days. An efficacy of 100% means all eggs are infertile; 0% means all eggs are fertile.

[11] = tested on: adult cat fleas (Ctenocephalides felis); assay: Ctenocephalides felis in-vitro contact test, adult cat flea; conditions: application rate 5 μg/cm^2 (=500 g/ha), after 48 hours, read-out: activity (efficacy: fleas dead or moribund)
In short: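 After 48 h of room-temperature exposure in tubes whose walls carried dried compound residue (5 μg/cm^2, from 900 ppm acetone solution), adult cat fleas (5-10 per tube) were heat-challenged at 45-50° C up to 5 min. Fleas unable to climb away were counted dead or moribund, expressed as % efficacy.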

[12] = tested on: brown planthopper (Nilaparvata lugens); assay: Nilaparvata lugens spray test; conditions: 96 h, application rate 500 g/ha, after 4 days, rice plants
Method: Nilaparvata lugens—Spray Test
To produce a suitable preparation of active compound, 1 part by weight of active compound is mixed with the stated amount of solvents and is diluted with water, containing an emulsifier concentration of 1000 ppm, to the desired concentration. Further test concentrations are prepared by dilution with emulsifier containing water.
Rice plants (Oryza sativa) are sprayed with a preparation of the active ingredient of the desired concentration and the plants are infested with the brown planthopper (Nilaparvata lugens).
After 4 days mortality in % is determined. 100% means all planthoppers have been killed and 0% means none of the planthoppers have been killed.

[13] = tested on: adult mosquitoes Aedes aegypti strain MONHEIM; assay: Aedes aegypti test (AEDSAE surface treatment & contact assay); conditions: 24 hours after contact, read-out: efficacy (mortality); for mortality at 20 mg/m2: surface concentration 20 mg/m^2, exposure 30 minutes
In short: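 Compound in acetone (2 mg/ml) with 2000 ppm RME dried onto glazed tile; adults exposed to the treated surface for 30 min. Percent mortality scored 24 h after contact.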

[14] = tested on: Rhipicephalus (Boophilus) microplus larvae (strain Parkhurst, resistant against synthetic pyrethroids); assay: Rhipicephalus (Boophilus) microplus in-vitro contact test, larval cattle tick; conditions: after 48 hours, read-out: activity (efficacy: larvae dead or moribund); for pest or weed control at 1 µg/cm2, 100 g/ha: application rate 1 μg/cm^2 (=100 g/ha); for pest or weed control at 5 µg/cm2, 500 g/ha: application rate 5 μg/cm^2 (=500 g/ha)
In short: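 Pyrethroid-resistant Parkhurst larvae, 20–50 per tube, were kept 48 h at 27 °C and 85% relative humidity in glass tubes whose inner walls carried a dried acetone film of compound (900 ppm giving 5 μg/cm^2). Dead or moribund larvae, judged by loss of negative geotactic behavior, set percent efficacy.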

[15] = tested on: southern root-knot nematode (Meloidogyne incognita); assay: Meloidogyne incognita test; conditions: application rate 20 ppm; after 14 days
Method: Meloidogyne incognita—Test
Solvent: 125.0 parts by weight of acetone
To produce a suitable preparation of active compound, 1 part by weight of active compound is mixed with the stated amount of solvent, and the concentrate is diluted with water to the desired concentration.
Vessels are filled with sand, a solution of the active ingredient, a suspension containing eggs and larvae of the southern root-knot nematode (Meloidogyne incognita) and salad seeds. The salad seeds germinate and the seedlings grow. Galls develop in the roots.
After 14 days the nematicidal activity is determined based on the percentage of gall formation. 100% means no galls were found and 0% means the number of galls found on the roots of the treated plants was equal to that in untreated control plants.

[16] = tested on: adult brown dog ticks (Rhipicephalus sanguineus); assay: Rhipicephalus sanguineus in-vitro contact test, adult brown dog ticks; conditions: application rate 5 μg/cm^2 (=500 g/ha), after 48 hours, read-out: activity (efficacy: ticks dead or moribund)
In short: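 Contact exposure: dried compound film inside glass tubes, dose 5 μg/cm^2 at 900 ppm, 5-10 adults per tube at room temperature. Scored at 48 h via a heat-escape test on a 45-50° C plate for up to 5 min.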

CC(NC(=O)c1cc(C(F)(F)F)cc(C(F)(F)F)c1)c1nc(C(F)F)nn1-c1ccc(C(=O)N2CCOCC2)cn1 (racemic) [Example I-83, N-[1-[5-(Difluoromethyl)-2-[5-(morpholine-4-carbonyl)-2-pyridyl]-1,2,4-triazol-3-yl]ethyl]-3,5-bis(trifluoromethyl)benzamide]
pest or weed control at 0.004 mg [1]: 100% | mortality at 100 ppm [2]: 100% | pest or weed control at 32 µg/disc, 100 g/ha [3]: 100% | pest or weed control at 160 µg/disc, 500 g/ha [3]: 100% | mortality at 4 ppm [4]: 100% | mortality at 20 ppm [4]: 100% | mortality at 500 g/ha [5]: 90% | mortality at 500 g/ha [6]: 100% | mortality at 100 g/ha [7]: 100% | mortality at 20 mg/m2 [8]: 80 to 100% | mortality at 20 mg/m2 [9]: 80 to 100%

C[C@H](NC(=O)c1cc(Cl)cc(C(F)(F)F)c1)c1ncnn1-c1ccc(C(=O)N2CCOCC2)cn1 [Example I-1]
pest or weed control at 100 ppm [10]: 80% | pest or weed control at 0.004 mg [1]: 100% | pest or weed control at 5 µg/cm2 [11]: 100% | mortality at 100 ppm [2]: 100% | pest or weed control at 160 µg/disc, 500 g/ha [3]: 100% | mortality at 4 ppm [4]: 100% | mortality at 100 g/ha [5]: 100% | mortality at 500 g/ha [5]: 100% | mortality at 500 g/ha [6]: 100% | mortality at 500 g/ha [12]: 100% | mortality at 100 g/ha [7]: 100% | mortality at 4 mg/m2 ([13]; surface concentration 4 mg/m^2, exposure 30 minutes): 80 to 100% | mortality at 20 mg/m2 [13]: 80 to 100%

C[C@H](NC(=O)c1cc(C(F)(F)F)cc(C(F)(F)F)c1)c1ncnn1-c1ccc(C(=O)N2CCC(O)C2)cn1 (some centres unmarked) [Example I-13]
pest or weed control at 1 µg/cm2, 100 g/ha [14]: 100% | pest or weed control at 5 µg/cm2, 500 g/ha [14]: 100% | pest or weed control at 100 ppm [10]: 80% | pest or weed control at 0.004 mg [1]: 100% | mortality at 100 ppm [2]: 100% | mortality at 4 ppm [4]: 100% | mortality at 100 g/ha [5]: 100%

COC1CCN(C(=O)c2ccc(-n3ncnc3[C@H](C)NC(=O)c3cc(Cl)cc(C(F)(F)F)c3)nc2)CC1 [Example I-30]
pest or weed control at 1 µg/cm2, 100 g/ha [14]: 100% | pest or weed control at 5 µg/cm2, 500 g/ha [14]: 100% | pest or weed control at 0.004 mg [1]: 100% | pest or weed control at 5 µg/cm2 [11]: 80% | activity (nematicidal activity based on gall formation) [15]: 90% | mortality at 4 ppm [4]: 100% | mortality at 100 g/ha [5]: 90%

Cc1nc([C@H](C)NC(=O)c2cc(C(F)(F)F)cc(C(F)(F)F)c2)n(-c2ccc(C(=O)N3C[C@@H](C)O[C@H](C)C3)cn2)n1 [Example I-47]
pest or weed control at 1 µg/cm2, 100 g/ha [14]: 100% | pest or weed control at 5 µg/cm2, 500 g/ha [14]: 100% | pest or weed control at 100 ppm [10]: 100% | pest or weed control at 0.004 mg [1]: 100% | pest or weed control at 5 µg/cm2 [11]: 100% | mortality at 100 ppm [2]: 90% | pest or weed control at 5 µg/cm2, 500 g/ha [16]: 100% | mortality at 4 ppm [4]: 100% | mortality at 100 g/ha [5]: 100% | mortality at 100 g/ha [7]: 100%

C[C@H](NC(=O)c1cc(C(F)(F)F)cc(C(F)(F)F)c1)c1ncnn1-c1ccc(C(=O)N2CCN(C)C(=O)C2)cn1 [Example I-79]
mortality at 4 ppm [4]: 100% | mortality at 500 g/ha [6]: 100% | mortality at 500 g/ha [12]: 100% | mortality at 100 g/ha [7]: 100% | mortality at 20 mg/m2 [13]: 80 to 100% | mortality at 20 mg/m2 [8]: 80 to 100% | mortality at 20 mg/m2 [9]: 80 to 100%

Cc1nc([C@H](C)NC(=O)c2cc(C(F)(F)F)cc(C(F)(F)F)c2)n(-c2ncc(C(=O)N3C[C@@H](C)O[C@@H](C)C3)s2)n1 [Example I-107]
pest or weed control at 1 µg/cm2, 100 g/ha [14]: 100% | pest or weed control at 5 µg/cm2, 500 g/ha [14]: 100% | pest or weed control at 100 ppm [10]: 100% | pest or weed control at 0.004 mg [1]: 100% | mortality at 100 ppm [2]: 100% | pest or weed control at 5 µg/cm2, 500 g/ha [16]: 100% | pest or weed control at 32 µg/disc, 100 g/ha [3]: 100% | mortality at 4 ppm [4]: 100% | mortality at 100 g/ha [7]: 100% | mortality at 20 mg/m2 [9]: 80 to 100%
